Results from patent publication US10604487B2, “Pyridinol derivative or pharmaceutically acceptable salt thereof, and pharmaceutical composition containing same as active ingredient” (Research Cooperation Foundation of Yeungnam University, priority 2016, dated 2020).
Where two headings read alike, the source gives them in different places.

Key:
[1] = tested on: TNF-α-induced adhesion of monocytes to intestinal epithelial cells; test: Inhibitory activity against TNF-α-induced adhesion of monocytes (U937) to intestinal epithelial cells (HT-29); assay type: cell-based, human; details: Homo sapiens
Description: HT-29 human colorectal cancer-derived epithelial cells and U937 human-derived monocytic cells were cultured in an RPMI 1640 medium containing 10% FBS and 1% penicillin/streptomycin (PS) at 37° C. under a condition of 5% CO2, and when the cells were grown to 80% or more in a culture flask, they were subcultured in a ratio of 1:3 to be used in this test. The HT-29 cells were cultured in a 24-well plate at a concentration of 2×10^5 cells/cm2, and then the medium only containing 1% FBS and 1% PS was pretreated with a test drug for 1 hour. Afterward, BCECF-loaded U937 cells by being treated with 10 μg/mL of BCECF-AM at 37° C. for 30 minutes and 10 ng/mL of TNF-α reacted with the HT-29 cells previously treated with the test drug at 37° C. for 3 hours. After the reaction, the medium was removed, and then the cells were washed with PBS twice to remove U937 cells that were not adhered. In a subsequent step, for cell lysis, 0.1% Triton X-100 (0.1 M Tris) was treated to allow a reaction at room temperature for 30 minutes, and then fluorescence was measured using a Fluostar optima microplate reader (BMG LABTECH, Germany) to quantify the cells (Carvalho et al., 1996; Thapa et al., 2008).

[2] = Cytotoxicity test (MTT), HT-29; assay type: cell-based; details: human, HT-29, 48 h; for viability at 48 h, 0.01 µM / viability at 48 h, 0.1 µM / viability at 48 h, 1 µM / viability at 48 h, 10 µM / viability at 48 h, 100 µM: HT-29 cells (colorectal cancer cell line), read-out: Cell viability (% of control); for IC50 at 48 h: HT-29 cells
Description: (§1) The human colorectal cancer cell line HT-29 and the monocytic blood cancer-derived cell line U937 were cultured in a RPMI 1640 medium containing 10% FBS and 1% penicillin/streptomycin (PS) at 37° C. under a condition of 5% CO2, and when the cells used herein were grown to 80% or more, they were subcultured at a ratio of 1:3.
(§2) Each type of cells were cultured in a 96 well plate at a concentration of 1×10^5 cells/cm2, treated with a test compound by concentration in a medium only containing 1% FBS and 1% PS at 37° C. under a condition of 5% CO2 for 48 hours and reacted with 5 mg/mL of a 3-[4,5-dimethylthiazol-2-yl]-2,5-diphenyltetrazolium bromide (MTT) reagent for 4 hours, and then the medium was completely removed, the cells were treated with DMSO, formazan crystals were dissolved for 30 minutes, and then absorbance was measured at 540 nm.

[3] = Cytotoxicity test (MTT), U937; assay type: cell-based; details: human, U937, 48 h; for viability at 48 h, 0.01 µM / viability at 48 h, 0.1 µM / viability at 48 h, 1 µM / viability at 48 h, 10 µM / viability at 48 h, 100 µM: U937 cells (monocytic blood cancer-derived cell line), read-out: Cell viability (% of control); for IC50 at 48 h: U937 cells
Description: as §1, §2

[4] = 1 μM test drug, HT-29/U937 adhesion, 10 ng/mL TNF-α, read-out: Inhibitory activity (%)
[5] = read-out: IC50 (μM), cytotoxicity

| IC50 ([1]; HT-29/U937 adhesion, TNF-α-induced, read-out: IC50 (adhesion inhibition)) [µM] | Structure (SMILES) | inhibition at 1 µM [1, 4] [%] | viability at 48 h, 0.01 µM [2] [%] | viability at 48 h, 0.1 µM [2] [%] | viability at 48 h, 1 µM [2] [%] | viability at 48 h, 10 µM [2] [%] | viability at 48 h, 100 µM [2] [%] | IC50 at 48 h [2, 5] [µM] | viability at 48 h, 0.01 µM [3] [%] | viability at 48 h, 0.1 µM [3] [%] | viability at 48 h, 1 µM [3] [%] | viability at 48 h, 10 µM [3] [%] | viability at 48 h, 100 µM [3] [%] | IC50 at 48 h [3] [µM] | IC50 at 48 h ([2]; text of b533, read-out: cytotoxicity IC50 for HT-29) [µM] | inhibition at 1 µM ([1]; 1 μM, Table 8, read-out: 1 μM concentration inhibitory activity) [%] |
| --- | --- | --- | --- | --- | --- | --- | --- | --- | --- | --- | --- | --- | --- | --- | --- | --- |
|  | Cc1nc(NC(=S)Nc2ccccc2)c(C)c(C)c1O [Compound 18-4, 1-(5-hydroxy-3,4,6-trimethylpyridin-2-yl)-3-phenylthiourea] | 49.7 | 96.6 ± 2.1 | 97 ± 4.4 | 99 ± 5 | 96.6 ± 2.4 | 76 ± 4.9 | > 100 | 99.5 ± 2.1 | 101 ± 1.9 | 96.7 ± 1.7 | 96.1 ± 1.4 | 70.6 ± 0.8 | > 100 |  |  |
|  | Cc1ccc(S(=O)(=O)Nc2nc(C)c(O)c(C)c2C)cc1 [Compound 22-2, N-(5-hydroxy-3,4,6-trimethylpyridin-2-yl)-4-methylbenzenesulfonamide] | 42.1 | 77.1 ± 3 | 76.9 ± 4 | 73.8 ± 5.8 | 71.5 ± 4.6 | 62.8 ± 0.5 | > 100 | 96.6 ± 1.6 | 94.5 ± 6.3 | 96.1 ± 3.8 | 90.5 ± 1.7 | 60.9 ± 1.7 | > 100 |  |  |
|  | CCCCOC(=O)Nc1nc(C)c(O)c(C)c1C [Compound 20-2, butyl (5-hydroxy-3,4,6-trimethylpyridin-2-yl)carbamate] | 26.9 | 102 ± 1.4 | 102 ± 3.2 | 98.1 ± 3.4 | 98.3 ± 3.8 | 67.6 ± 1.9 | > 100 | 87.4 ± 1.3 | 84.4 ± 2.3 | 84.6 ± 2 | 80.7 ± 0.8 | 74.4 ± 3.8 | > 100 |  |  |
|  | Cc1nc(NC(=O)Nc2cccc3ccccc23)c(C)c(C)c1O [Compound 16-5, 1-(5-hydroxy-3,4,6-trimethylpyridin-2-yl)-3-(naphthalen-1-yl)urea] | 20.2 | 105 ± 1.1 | 94.3 ± 2.1 | 78.6 ± 10.1 | 73.4 ± 5.6 | 76.7 ± 1.1 | > 100 | 88.1 ± 1.9 | 85.4 ± 6.4 | 90.9 ± 1.2 | 88.5 ± 2.8 | 79.6 ± 2.7 | > 100 |  |  |
|  | CCCNC(=O)Nc1nc(C)c(O)c(C)c1C [Compound 16-1, 1-(5-hydroxy-3,4,6-trimethylpyridin-2-yl)-3-propylurea] | 18.2 | 94.9 ± 6.5 | 84.4 ± 7.6 | 84.4 ± 4.2 | 70.9 ± 6.2 | 42.8 ± 2.7 |  | 89.1 ± 3.5 | 88.4 ± 3.5 | 90 ± 4.8 | 75.2 ± 0.9 | 44.2 ± 0.7 | 15.4 | 64.6 |  |
|  | Cc1nc(NC(=S)NC2CCCCC2)c(C)c(C)c1O [Compound 18-3, 1-cyclohexyl-3-(5-hydroxy-3,4,6-trimethylpyridin-2-yl)thiourea] | ≥ 50 | 90.9 ± 5.1 | 80.5 ± 10.4 | 66.8 ± 6.2 | 67 ± 5 | 51.3 ± 6.7 | > 100 | 88.8 ± 7 | 93.1 ± 1 | 97.6 ± 1.3 | 87.7 ± 2 | 84.3 ± 1.5 | > 100 |  |  |
|  | Cc1nc(NS(=O)(=O)c2ccc([N+](=O)[O-])cc2)c(C)c(C)c1O [Compound 22-4, N-(5-hydroxy-3,4,6-trimethylpyridin-2-yl)-4-nitrobenzenesulfonamide] | -2.3 | 96.6 ± 1.3 | 97.8 ± 2.4 | 96.3 ± 1.7 | 85.4 ± 6.7 | 64.8 ± 7.1 | > 100 | 95.2 ± 4.6 | 93.3 ± 0.8 | 80.2 ± 11.7 | 84.7 ± 1.7 | 70.6 ± 0.4 | > 100 |  |  |
|  | Cc1nc(NS(C)(=O)=O)c(C)c(C)c1O [Compound 22-1, N-(5-hydroxy-3,4,6-trimethylpyridin-2-yl)methanesulfonamide] | 18.7 | 87.6 ± 3.3 | 75.7 ± 8.2 | 76.1 ± 3.6 | 63.5 ± 1.8 | 43 ± 1.9 | 50.1 | 97.6 ± 5 | 94.8 ± 3.8 | 95.7 ± 2.4 | 94.4 ± 0.4 | 94.4 ± 2.5 | > 100 |  |  |
|  | Cc1nc(NC(=O)NS(=O)(=O)c2ccccc2)c(C)c(C)c1O [Compound 16-6, N-((5-hydroxy-3,4,6-trimethylpyridin-2-yl)carbamoyl)benzenesulfonamide] | 17.5 | 90 ± 3.5 | 85.4 ± 0.9 | 76 ± 7.2 | 77.9 ± 3.5 | 53.6 ± 2.5 | > 100 | 91.6 ± 2.6 | 94.3 ± 2.6 | 85.8 ± 2.7 | 83.5 ± 1.1 | 84.9 ± 2 | > 100 |  |  |
|  | Cc1nc(NC(=O)OCC(C)C)c(C)c(C)c1O [Compound 20-3, isobutyl (5-hydroxy-3,4,6-trimethylpyridin-2-yl)carbamate] | 6 | 101 ± 1.9 | 91 ± 3.6 | 93.3 ± 4.7 | 83.7 ± 3.3 | 71.2 ± 3.4 | > 100 | 86.3 ± 0.4 | 86.3 ± 0.9 | 80.9 ± 2.1 | 82.2 ± 0.5 | 72.5 ± 1.9 | > 100 |  |  |
|  | Cc1nc(NC(=S)Nc2ccc(Cl)cc2)c(C)c(C)c1O [Compound 18-6, 1-(4-chlorophenyl)-3-(5-hydroxy-3,4,6-trimethylpyridin-2-yl)thiourea] | ≥ 50 | 95.2 ± 3.2 | 86.6 ± 4.9 | 83.6 ± 3.3 | 72.8 ± 2.8 | 65.3 ± 1.9 | > 100 | 99.6 ± 0.5 | 96.8 ± 1.9 | 91.6 ± 2.6 | 86.4 ± 1.7 | 80.7 ± 2.5 | > 100 |  |  |
| 0.23 | Cc1nc(NS(=O)(=O)c2cccc3ccccc23)c(C)c(C)c1O [Compound 22-5, N-(5-hydroxy-3,4,6-trimethylpyridin-2-yl)naphthalene-1-sulfonamide] |  | 95.2 ± 3.3 | 86.7 ± 6.5 | 87.8 ± 3.2 | 89.1 ± 3.5 | 88.8 ± 1.2 | > 100 | 102 ± 5.4 | 93.4 ± 1.2 | 92.6 ± 0.9 | 85.1 ± 3.1 | 62.5 ± 2 | > 100 |  | 80.6 |
